Test results published in patent publication EP0443560A2, “HIV protease inhibitors” (priority 1990, dated 1991).
pIC50: −log10 of the molar value.

Legend:
H9/HTLV-IIIB = experiment: Inhibition of syncytia formation in HIV-infected C8166 cells (antiviral screen adapted from plaque assay of Harada et al.); format: cell-based; conditions: Human immunodeficiency virus 1, IIIB, 72 h
From the text: Typical of such procedures are those described by S. Harada and N. Yamamoto, Jpn. J. Cancer Res. (Gann), 76, 432 (1985), and S. Harada et al., Science, 229, 563 (1985). An assay based on the latter procedures is described in the examples hereinafter.
The following protocol, used for screening antiviral effects of the compounds of formula 1 , is adapted from a plaque assay utilizing HTLV-I transformed cells which was developed by Harada et al., supra. HTLV-I transformed cells are used in these assays because of the rapidity with which HIV will replicate in these cells. • 1. The test compound is dissolved in dimethylsulfoxide to a concentration of 5 mg/mL. The resultant solution can be stored at 4° until used. • 2. The resultant solution is diluted in RPMI 1640 (Gibco Laboratories, St. Lawrence, MA, USA) to four times (4x) the final concentration which is to be tested. Once diluted in RPMI 1640, the solution is used in the cell culture assay within 4 h. • 3. The 4x solution (50µL) is added to triplicate wells of a 96 well flat bottomed microtiter plate. […] Infectious titer of virus stocks are as previously determined by end point dilution on C8166 cells. […] Plates are then removed and centers of syncytia are counted in each well by low power phase contrast light microscopy. […] Percent inhibition of syncytia formation is calculated by the formula: [formula]

HIV protease = biological target: T1, HIV protease (Human immunodeficiency virus type 1 group M subtype B, UniProt P04585); experiment: Recombinant HIV Protease HPLC Assay; format: biochemical
T1 construct: HIV protease was expressed in E. coli [construct pBRT1 prt⁺; made in house; host or cells: E. coli
From the text: The procedure is based on the capacity of the test compound to inhibit enzymatic cleavage by HIV protease of a decapeptide (the substrate) having an amino acid sequence which includes a known HIV protease cleavage site of a HIV polyprotein; see H.G. Krausslich et al., Proc. Natl. Acad. Sci. USA, 86, 807 (1989). Details of this assay together with the results obtained for exemplified compounds of formula 1 are described in the examples hereinafter.
Recombinant HIV Protease HPLC Assay:
HIV protease was expressed in E. coli [construct pBRT1 prt⁺, see W.G. Farmerie et al., Science, 236, 305 (1987)], according to the following protocol: Unless stated otherwise, all solutions are aqueous solutions.
E. coli cells containing the pBRT1 prt⁺ plasmid were used to inoculate a seed culture media composed of Luria-Bertani Broth containing 100µg/mL of ampicillin. Flasks were incubated at 37° under agitation for 17 h. Production flasks containing sterile M9 broth, supplemented with 100µg/ml of ampicillin, were inoculated at a level of 1% (v/v) using the seed culture described above. Total volume in each production flask was 500 mL in a 2 L Erlenmeyer flask. Flasks were incubated at 37° under agitation until a cell concentration corresponding to an optical density (λ = […]) of 0.6 was reached (no dilution). This time span was routinely 3-4 h. Flasks were then supplemented with 5mM isopropylthiogalactoside (IPTG, Research Organics, Cleveland, Ohio, USA) and incubation was continued until the cell concentration reached an optical density of 0.2 at 16-fold dilution. Flasks were then supplemented with 1mM phenylmethylsulfonyl fluoride (PMSF) and rapidly chilled to 4°. The bacterial cells were recovered by centrifugation at 4°. The wet pellet was stored at -70°.
All steps below were performed at 4° unless otherwise indicated. Thawed cells were mixed with buffer A [50 mM tris(hydroxymethyl)[…] HCl(Tris-HCl, pH 7.4); 0.6 mM ethylenediaminetetraacetic acid (EDTA); 0.375 M NaCl, 0.2% Nonidet P-40 ® (BDH Chemicals Ltd., Poole, UK); 1mM PMSF], at a ratio of one part cells to nine parts buffer A. Diatomaceous earth (Celite 545 ® , John Manville, Lompoc, CA, USA) was added at a ratio of two parts to one part of wet cell weight. The resulting slurry was homogenized at high speed (ca. 20,000 rpm) on a Waring ® industrial blender for 8 x 15 sec. pulses. Cell debris/Celite ® was collected by centrifugation and the resulting pellet was extracted with 4.5 parts of buffer A to one part wet solids using the homogenization procedure described above. Supernatants from both homogenization steps were combined and soluble protein was precipitated by the addition of solid (NH₄)₂SO₄ to yield a final concentration of 75% saturation. This mixture was agitated for 60 min and the precipitate was recovered by centrifugation. The resulting pellet was suspended in buffer B [50mM Tris-HCl, pH 8; 30 mM NaCl; 1 mM DL-dithiothreitol(DTT); 1 mM EDTA; 1 mM PMSF; 10% glycerol], and dialyzed for 18h against the same buffer.
An aliquot of the dialyzed extract containing 150 mg of the protein was loaded onto a Sephadex A25 ® anion exchange column. (Pharmacia, Uppsala, Sweden) with bed dimensions of 70 cm length and 2.5 cm diameter. The sample was eluted isocratically with buffer B at a linear flow rate of 10 cm/h. Fractions containing HIV protease activity (see below for assay description) were combined, and soluble protein was precipitated by the addition of saturated aqueous (NH₄)₂SO₄ to yield a total (NH₄)₂SO₄ concentration of 85% saturation. Precipitated protein was removed by centrifugation and the resulting pellet was dissolved in buffer C [50 mM 2-(4-morpholino)ethanesulfonic acid (MES), pH 5.5; 150 mM NaCl; 1 mM DTT; 1 mM EDTA; 10% glycerol). This preparation was dialyzed for 18h against buffer C, and then frozen at -70°. All crude extracts were purified by chromatography in aliquots containing 150 mg of protein in the same manner as described above. […]

| SMILES | inhibition at 20 µg/mL (H9/HTLV-IIIB) [%] | pIC50 (HIV protease) |
| --- | --- | --- |
| CC(C)(C)OC(=O)NC(CNC(CC1CC1)C(=O)NC(CCC(=O)O)C(=O)NCCCc1ccccc1)Cc1ccccc1 (stereo not drawn) [Example 2, Boc-PheΨ[CH₂NH]Cpa-Glu-NHCH₂CH₂CH₂Ph] | 54 | 7.89 |
| CC(C)(C)OC(=O)NC(CC1CCCCC1)C(O)CC(=O)NC(CCC(=O)O)C(=O)NCCCc1ccccc1 (stereo not shown) [Example 4, Boc-ACHPA-Glu-NHCH₂CH₂CH₂Ph] | 96 | 8.15 |
